This note sets out measurements from US7964560B2, “Hepatitis C virus inhibitors” (Bristol-Myers Squibb Company, priority 2008, dated 2011).

Read-outs that look alike come from different tables or passages of the source.

Test [1] concerns the target T1, HCV NS3/4A protease complex, BMS strain (UniProt P27958, species not given/STRAIN_BMS).
T1 construct: other: BMS strain; said of H77 and J4L6S; fused on or other part: three-lysine solubilising tail at the end of NS4A (printed for the H77 and J4L6S constructs; probably the same for BMS)
As to the kind of experiment: FRET peptide assay to monitor HCV NS3/4A proteolytic activity (BMS strain). Particulars: read-out: IC50 against the NS3/4A BMS strain in the enzyme assay; BMS strain. In kind it is biochemical, Hepatitis C virus (genotype 1a). The text has this:
(§1) HCV […] protease complexes, derived from the BMS strain, H77 strain or J4L6S strain, were generated, as described below. These purified recombinant proteins were generated for use in a homogeneous assay (see below) to provide an indication of how effective compounds of the present disclosure would be in inhibiting HCV NS3 proteolytic activity.
(§2) Serum from an HCV-infected patient was obtained from Dr. T. Wright, San Francisco Hospital. An engineered full-length cDNA (compliment deoxyribonucleic acid) template of the HCV genome (BMS strain) was constructed from DNA fragments obtained by reverse transcription-PCR (RT-PCR) of serum RNA (ribonucleic acid) and using primers selected on the basis of homology between other genotype 1a strains. From the determination of the entire genome sequence, a genotype 1a was assigned to the HCV isolate according to the classification of Simmonds et al. (See Simmonds, P. et al., J. Clin. Microbiol., 31(6), 1493-1503 (1993)). […] The infectious clones, H77 (1a genotype) and J4L6S (1b genotype) were obtained from R. Purcell (NIH) and the sequences are published in GENBANK® (AAB67036, see Yanagi, M. et al., Proc. Natl. Acad. Sci. U.S.A., 94(16):8738-8743 (1997); AF054247, see Yanagi, M. et al., Virology, 244(1):161-172 (1998)).
(§3) The H77 and J4L6S strains were used for production of recombinant NS3/4A protease complexes. DNA encoding the recombinant HCV NS3/4A protease complex (amino acids 1027 to 1711) for these strains were manipulated as described by P. Gallinari et al. (see Gallinari, P. et al, Biochemistry, 38(17):5620-5632 (1999)). Briefly, a three-lysine solubilizing tail was added at the 3′-end of the NS4A coding region. The cysteine in the P1 position of the NS4A-NS4B cleavage site (amino acid 1711) was changed to a glycine to avoid the proteolytic cleavage of the lysine tag. Furthermore, a cysteine to serine mutation was introduced by PCR at amino acid position 1454 to prevent the autolytic cleavage in the NS3 helicase domain. The variant DNA fragment was cloned in the pET21b bacterial expression vector (Novagen) and the NS3/4A complex was expressed in Escherichia. coli strain BL21 (DE3) (Invitrogen) following the protocol described by P. Gallinari et al. (see Gallinari, P. et al., J. Virol., 72(8):6758-6769 (1998)) with modifications. Briefly, the NS3/4A protease complex expression was induced with 0.5 millimolar (mM) Isopropyl β-D-1-thiogalactopyranoside (IPTG) for 22 hours (h) at 20° C. A typical fermentation (1 Liter (L)) yielded approximately 10 grams (g) of wet cell paste. The cells were resuspended in lysis buffer (10 mL/g) consisting of 25 mM N-(2-hydroxyethyl)piperazine-N′-(2-ethane sulfonic acid) (HEPES), pH 7.5, 20% glycerol, 500 mM sodium chloride (NaCl), 0.5% Triton X-100, 1 microgram/milliliter (“μg/mL”) lysozyme, 5 mM magnesium chloride (MgCl2), 1 μg/ml DnaseI, 5 mM β-mercaptoethanol (βME), protease inhibitor-ethylenediamine tetraacetic acid (EDTA) free (Roche), homogenized and incubated for 20 minutes (min) at 4° C. The homogenate was sonicated and clarified by ultra-centrifugation at 235000 g for 1 hour (h) at 4° C. Imidazole was added to the supernatant to a final concentration of 15 mM and the pH adjusted to 8.0. The crude protein extract was loaded on a Nickel-Nitrilotriacetic acid (Ni-NTA) column pre-equilibrated with buffer B (25 mM HEPES, pH 8.0, 20% glycerol, 500 mM NaCl, 0.5% Triton X-100, 15 mM imidazole, 5 mM βME). The sample was loaded at a flow rate of 1 mL/min. The column was washed with 15 column volumes of buffer C (same as buffer B except with 0.2% Triton X-100). The protein was eluted with 5 column volumes of buffer D (same as buffer C except with 200 mM Imidazole).
(§4) NS3/4A protease complex-containing fractions were pooled and loaded on a desalting column Superdex-S200 pre-equilibrated with buffer D (25 mM HEPES, pH 7.5, 20% glycerol, 300 mM NaCl, 0.2% Triton X-100, 10 mM βME). Sample was loaded at a flow rate of 1 mL/min. […]
T1 sequence (P27958 1027-1657, change not shown, one chain of several): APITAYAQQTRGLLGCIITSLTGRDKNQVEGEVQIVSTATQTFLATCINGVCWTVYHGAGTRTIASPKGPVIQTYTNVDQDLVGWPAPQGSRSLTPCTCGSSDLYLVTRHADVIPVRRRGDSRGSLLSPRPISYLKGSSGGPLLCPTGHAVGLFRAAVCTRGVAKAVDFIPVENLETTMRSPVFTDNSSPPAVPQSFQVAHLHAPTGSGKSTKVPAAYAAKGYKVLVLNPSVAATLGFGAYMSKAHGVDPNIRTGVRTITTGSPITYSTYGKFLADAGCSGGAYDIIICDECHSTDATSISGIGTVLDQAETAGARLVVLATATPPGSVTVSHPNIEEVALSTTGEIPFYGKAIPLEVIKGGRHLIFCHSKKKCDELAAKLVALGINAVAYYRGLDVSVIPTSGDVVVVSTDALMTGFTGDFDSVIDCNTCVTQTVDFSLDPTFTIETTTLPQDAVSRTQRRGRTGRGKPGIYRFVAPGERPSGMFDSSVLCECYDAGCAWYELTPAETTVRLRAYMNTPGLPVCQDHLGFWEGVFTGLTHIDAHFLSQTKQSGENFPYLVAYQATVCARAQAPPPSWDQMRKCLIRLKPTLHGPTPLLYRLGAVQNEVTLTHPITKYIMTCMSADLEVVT

The target in test [2] is T2, HCV NS3/4A protease complex, BMS strain (UniProt P27958, species not given/STRAIN_BMS).
T2 construct: said of H77 and J4L6S; fused on or other part: three-lysine solubilising tail at the end of NS4A (printed for the H77 and J4L6S constructs; probably the same for BMS)
The description is as above. Particulars: Table 2, NS3/4A BMS strain, numeric values. In kind it is biochemical, Hepatitis C virus (genotype 1a).
From the text: as §1, §2, §3, §4
T2 sequence (P27958 1027-1657, change not shown, one chain of several): as above

Test [3] has as its system HCV replicon (Renilla luciferase reporter) in HUH-7 cells. The test can be described thus: HCV replicon luciferase reporter assay. It is filed as cell-based, Hepatitis C virus (strain 1b). Particulars: Huh-7, 96 h, 4 days. On the technique in general: In antiviral work, replicon cells carry a viral genome segment that copies itself.

In general, EC50 refers to the concentration that produces a half-maximal response. Low readings indicate higher potency in that assay, high ones lower potency in that assay. In the case of `C=C[C@@H]1C[C@]1(NC(=O)[C@@H]1C[C@@](SCCCC)(c2ccc(-c3ccccc3)cc2)CN1C(=O)[C@@H](NC(=O)OC(C)(C)C)C(C)(C)C)C(=O)NS(=O)(=O)C1CC1` [Example 1, tert-butyl (S)-1-((2S,4R)-4-(biphenyl-4-yl)-4-(butylthio)-2-((1R,2S)-1-(cyclopropylsulfonylcarbamoyl)-2-vinylcyclopropylcarbamoyl)pyrrolidin-1-yl)-3,3-dimethyl-1-oxobutan-2-ylcarbamate], the IC50 came to 4.6 nM in test [1] and 3 nM in test [2]. In test [3], it took 6 nM to reach a half-maximal effect (EC50).
